Measurements from publication PMC6151961 (Journal of Enzyme Inhibition and Medicinal Chemistry, 2018).
Like-named read-outs stand apart in the source and are kept apart here. One block for each molecule: values may come before it.

Columns and labels:
[1] = RP-LC chromatographic lipophilicity (logkw); format: physicochemical; conditions: chromatographic lipophilicity from gradient RP-LC, Luna RP-C18, water/acetonitrile with 0.1% formic acid, 30 °C
CA IX [2] = target: T1, CA IX (Homo sapiens, UniProt Q16790); assay: biochemical; conditions: read-out: pKi (exp.) (converted)
CA IX [3] = target: T1, CA IX; conditions: read-out: Ki, cited from earlier work
[4] = library compounds with IDs A… and B…, from observed Ki (nM)
[5] = library compounds with IDs A… and B…, observed Ki, ref ChEMBL, BindingDB
[6] = experimental value used for the QSPR model, library compounds (IDs A…, B…), equals log10 of Ki in nM
[7] = observed Ki of library compounds (IDs A…, B…), ref ChEMBL and BindingDB
[8] = experimental value from the library Ki (IDs A…, B…), values equal log10 of Ki in nM

Ki (CA IX [2]; [4]): 12 nM
Structure (SMILES): COc1ccc2c(c1)CCN(S(N)(=O)=O)[C@@H]2c1ccc(N)cc1 [B0230]
Ki (CA IX [3]; [5]): 12 nM

Ki (CA IX [2]; [6]): 20 nM
Structure (SMILES): NS(=O)(=O)c1ccc(-n2cc(/C=N/Nc3nc(-c4cc5ccccc5oc4=O)cs3)c(-c3ccccc3)n2)cc1 [B0285]
Ki (CA IX [3]; [7]): 20 nM

Ki (CA IX [2]): 24 nM
Structure (SMILES): Nc1nc(=O)[nH]c2c1c(-c1ccc(Br)cc1)cn2-c1ccc(S(N)(=O)=O)cc1 [B0312]
Ki (CA IX [3]): 24 nM

Ki (CA IX [2]; [6]): 3 nM
Structure (SMILES): NS(=O)(=O)Nc1ccc(NC(=O)Nc2ccc(Cl)cc2)cc1 [A0149]
Ki (CA IX [3]; [7]): 3 nM

Ki (CA IX [2]; [8]): 37 nM
Structure (SMILES): C[C@@H](Sc1nc(-c2ccc(Cl)c(F)c2)c(C#N)c(=O)[nH]1)C(=O)Nc1ccc(S(N)(=O)=O)cc1 [A1157]
Ki (CA IX [3]; [7]): 37 nM

Ki (CA IX [2]; [4]): 3.4 nM
Structure (SMILES): C[C@H](NC(=O)Nc1ccc(NS(N)(=O)=O)cc1)c1cccc2ccccc12 [B0045]
Ki (CA IX [3]; [5]): 3.4 nM

Ki (CA IX [2]): 24 nM
Structure (SMILES): NS(=O)(=O)c1ccc(C(=O)NNC(=O)Nc2ccc([C@]34C[C@H]5C[C@H](C[C@H](C5)C3)C4)cc2)cc1 [A0952]
Ki (CA IX [3]): 24 nM

Ki (CA IX [2]): 8.49 nM
Structure (SMILES): C[C@H](Nc1nc(NCc2ccc(S(N)(=O)=O)cc2)nc(N[C@H](C)C(=O)O)n1)C(=O)O [A0552]
Ki (CA IX [3]): 8.5 nM

Ki (CA IX [2]; [6]): 17 nM
Structure (SMILES): Cc1ccc2c(c1)/C(=N/c1ccc(NC(=O)Nc3ccc(S(N)(=O)=O)cc3)cc1)C(=O)N2 [B0270]
Ki (CA IX [3]; [7]): 17 nM

Ki (CA IX [2]; [4]): 10100 nM
Structure (SMILES): O=C(N/N=C\c1cccc(Br)c1)Nc1nnc(S)s1 [B0891]
Ki (CA IX [3]; [5]): 10100 nM

Ki (CA IX [2]; [8]): 11 nM
Structure (SMILES): Cc1ncc(-c2ccc(S(N)(=O)=O)s2)o1 [B0222]
Ki (CA IX [3]; [7]): 11 nM

Second part, the molecule before the results:

Structure (SMILES): Cc1cc(S(=O)(=O)NC(=N)Nc2ccccc2S(N)(=O)=O)c(SCc2cc(=O)[nH]c3ccccc23)cc1Cl [C117]
logkw [1]: 3.870

Structure (SMILES): COC(=O)[C@H]1C[C@H](OS(N)(=O)=O)CN1S(=O)(=O)[C@H]1O[C@H](COC(C)=O)[C@@H](OC(C)=O)[C@H](OC(C)=O)[C@H]1OC(C)=O [B0015]
Ki (CA IX [2]; [4]): 2 nM
Ki (CA IX [3]; [5]): 2 nM

Structure (SMILES): Cc1cc(S(=O)(=O)NC(=N)Nc2ccc(S(N)(=O)=O)cc2)c(SCc2ccc(C(F)(F)F)cc2)cc1Cl [C105]
logkw [1]: 4.550

Structure (SMILES): NS(=O)(=O)c1ccc(-n2cc(/C=N/Nc3nc(-c4cc5cc(Cl)ccc5oc4=O)cs3)c(-c3ccc(F)cc3)n2)cc1 [B0019]
Ki (CA IX [2]; [8]): 2.5 nM
Ki (CA IX [3]; [7]): 2.5 nM

Structure (SMILES): NS(=O)(=O)c1ccc(N2C(=O)/C(=C\c3coc4ccccc4c3=O)N=C2c2ccccc2)cc1 [B0301]
Ki (CA IX [2]; [4]): 23 nM
Ki (CA IX [3]; [5]): 23 nM

Structure (SMILES): Cc1cc(S(=O)(=O)NC(=N)NNc2ccc(S(N)(=O)=O)cc2)c(SCc2ccc(C(F)(F)F)cc2)cc1Cl [C108]
logkw [1]: 4.460

Structure (SMILES): COC(=O)[C@H]1O[C@H](SNCc2ccc(S(N)(=O)=O)cc2)[C@@H](OC(C)=O)[C@H](OC(C)=O)[C@H]1OC(C)=O [B0598]
Ki (CA IX [2]; [6]): 102 nM
Ki (CA IX [3]; [7]): 102 nM

Structure (SMILES): Cc1cc(S(=O)(=O)NC(=N)NNc2ccc(S(N)(=O)=O)cc2)c(SCc2cc3c(cc2Cl)OCO3)cc1Cl [C122]
logkw [1]: 3.690

Structure (SMILES): NOS(=O)(=O)N[C@H]1C=C[C@H](O)[C@@H](CO)O1 [A1502]
Ki (CA IX [2]; [8]): 84.9 nM
Ki (CA IX [3]; [7]): 85 nM

Structure (SMILES): CCO[C@H]1Oc2ccccc2C(=O)[C@H]1/C=N\c1ccc(S(=O)(=O)Nc2cc(C)on2)cc1 [B0311]
Ki (CA IX [2]; [8]): 24 nM
Ki (CA IX [3]; [7]): 24 nM

Structure (SMILES): Cc1cc(S(=O)(=O)NC(=N)Nc2cccc(S(N)(=O)=O)c2)c(SCc2cccc(C(F)(F)F)c2)cc1Cl [C101]
logkw [1]: 4.470

Structure (SMILES): NS(=O)(=O)c1ccc(C(=O)OCc2cn([C@@H]3O[C@H](CO)[C@@H](O)[C@@H](O)[C@@H]3O)nn2)cc1 [B0491]
Ki (CA IX [2]): 65 nM
Ki (CA IX [3]): 65 nM

Structure (SMILES): NS(=O)(=O)c1ccc(-c2cn([C@H]3O[C@H](CO)[C@@H](O[C@@H]4O[C@H](CO)[C@@H](O)[C@H](O)[C@@H]4O)[C@H](O)[C@@H]3O)nn2)cc1 [B0632]
Ki (CA IX [2]): 130 nM
Ki (CA IX [3]): 130 nM

Structure (SMILES): CC(=O)OC[C@@H]1O[C@@H](NS(N)(=O)=O)C[C@@H](OC(C)=O)[C@@H]1OC(C)=O [B0263]
Ki (CA IX [2]): 16 nM
Ki (CA IX [3]): 16 nM

Structure (SMILES): NS(=O)(=O)OC[C@H]1O[C@H](O)[C@H](O)[C@@H](O)[C@H]1O [A1346]
Ki (CA IX [2]; [8]): 61.9 nM
Ki (CA IX [3]; [7]): 62 nM

Structure (SMILES): NS(=O)(=O)c1ccc(NC(=S)Nc2ccc(C3c4ccc(O)cc4Oc4cc(O)ccc43)c(C(=O)O)c2)c(F)c1 [B0365]
Ki (CA IX [2]; [6]): 30 nM
Ki (CA IX [3]; [7]): 30 nM

Structure (SMILES): CN(C)C1=CCN(c2ccncc2S(N)(=O)=O)C=C1 [B0189]
Ki (CA IX [2]; [6]): 8.99 nM
Ki (CA IX [3]; [7]): 9 nM

Structure (SMILES): CC(=O)[C@H]1NN(c2ccccc2)[C@H]([C@H](C#N)C(=O)Nc2ccc(S(N)(=O)=O)cc2)S1 [A0013]
Ki (CA IX [2]; [8]): 0.33 nM
Ki (CA IX [3]; [7]): 0.33 nM

Structure (SMILES): CC(=O)OC[C@@H]1O[C@@H](OCc2cn(-c3ccc(S(N)(=O)=O)cc3)nn2)[C@H](OC(C)=O)[C@@H](OC(C)=O)[C@H]1OC(C)=O [B0606]
Ki (CA IX [2]): 107 nM
Ki (CA IX [3]): 107 nM

Structure (SMILES): NOS(=O)(=O)N[C@H]1C=C[C@H](O)CO1 [A1544]
Ki (CA IX [2]): 91 nM
Ki (CA IX [3]): 91 nM

Structure (SMILES): CCCN(CCC)S(=O)(=O)c1ccc(C(=O)N[C@H](Cc2ccccc2)C(N)=O)cc1 [B0320]
Ki (CA IX [2]): 25 nM
Ki (CA IX [3]): 25 nM
